Experiment [1] concerns cultured human mast cells (CHMC). Put plainly: CHMC low cell density IgE activation: tryptase assay. The class given is cell-based. As to conditions: low cell density CHMC, IgE activation, tryptase. In outline: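 Tryptase release, fluorogenic substrate, 30 min RT. Prior anti-IgE stimulation of CHMC, 30 min, 37 °C, after 1 hr preincubation at 1000–1500 cells/well in MT; unstimulated wells received MT.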

For experiment [2] the test system is unchanged. Put plainly: CHMC low cell density ionomycin activation: tryptase assay. As to conditions: low cell density CHMC, tryptase, 3 pt, read-out: LD Tryptase, CHMC, Iono, 3 pt. The class given is cell-based.
Where [3] appears, read: Homo sapiens, Mast cell, 3 pt, read-out: LD Tryptase, CHMC, IgE, 3 pt.
The mark [4] stands for this setting: Homo sapiens, Mast cell, 8 pt, read-out: LD Tryptase, CHMC, IgE, 8 pt.
Where [5] appears, read: 3 pt, read-out: LD Tryptase, CHMC, IgE, 3 pt.
Where [6] appears, read: 8 pt, read-out: LD Tryptase, CHMC, IgE, 8 pt.

Regarding `COC(=O)c1cc2cc(Nc3ncc(F)c(N(C)c4ccc5c(c4)OCCO5)n3)ccc2o1` [Compound 395], the IC50 is less than 10 µM in experiment [1] (setting [3]); less than 10 µM in experiment [1] (setting [4]); less than 10 µM in experiment [2] (Homo sapiens, Mast cell).
Consider `Cc1cc(C)cc(Nc2ncc(F)c(Nc3ccc4c(c3)N(C)C(=O)C(C)(C)O4)n2)c1` [Compound 396], for which the IC50 in experiment [1] (setting [3]) was less than 10 µM; in experiment [1] (setting [4]), less than 10 µM; in experiment [2] (Homo sapiens, Mast cell), less than 10 µM.
As to `COc1cc(Nc2ncc(F)c(Nc3ccc4c(c3)N(C)C(=O)C(C)(C)O4)n2)cc(OC)c1` [Compound 397], the IC50 in experiment [1] (setting [3]) was less than 10 µM; in experiment [1] (setting [4]), less than 10 µM; in experiment [2] (Homo sapiens, Mast cell), less than 10 µM.
With `CNC(=O)COc1cccc(Nc2ncc(F)c(N(C)c3cc(OC)cc(OC)c3)n2)c1` [Compound 398, N4-(3,5-Dimethoxyphenyl)-5-fluoro-N4-methyl-N2-[3-(N-methylamino)carbonylmethyleneoxyphenyl]-2,4-pyrimidinediamine], the IC50 in experiment [1] (setting [5]) is less than 10 µM; in experiment [2], more than 10 µM.
With `COc1cc(Nc2ncc(F)c(N(C)c3cc(OC)cc(OC)c3)n2)cc(OC)c1` [Compound 400], the IC50 in experiment [1] (setting [3]) was less than 10 µM; in experiment [2] (Homo sapiens, Mast cell), more than 10 µM.
With `COC(=O)c1cc2cc(Nc3ncc(F)c(N(C)c4cc(OC)cc(OC)c4)n3)ccc2o1` [Compound 401], the IC50 was less than 10 µM in experiment [1] (setting [3]) and less than 10 µM in experiment [2] (Homo sapiens, Mast cell).
`COc1cc(OC)cc(N(C)c2nc(Nc3ccc(OC)c(Cl)c3)ncc2F)c1` [Compound 404, N2-(3-Chloro-4-methoxyphenyl)-N4-(3,5-dimethoxyphenyl)-5-fluoro-N4-methyl-2,4-pyrimidinediamine]: the IC50 in experiment [1] (setting [3]) is more than 10 µM; in experiment [2] (Homo sapiens, Mast cell), more than 10 µM.
Take `COc1cc(OC)cc(N(C)c2nc(Nc3ccc(Cl)c(OC)c3)ncc2F)c1` [Compound 405]: the IC50 is less than 10 µM in experiment [1] (setting [3]) and more than 10 µM in experiment [2] (Homo sapiens, Mast cell).
With `CNC(=O)c1cc2cccc(Nc3ncc(F)c(N(C)c4cc(OC)cc(OC)c4)n3)c2[nH]1` [Compound 406, N4-(3,5-Dimethoxyphenyl)-5-fluoro-N4-methyl-N2-[2-(N-methylamino)carbonylindol-7-yl]-2,4-pyrimidinediamine], the IC50 in experiment [1] (setting [3]) is less than 10 µM; in experiment [2] (Homo sapiens, Mast cell), more than 10 µM.
With `COc1cc(Nc2ncc(F)c(Nc3ccc(OC(C)(C)C(=O)O)c(Cl)c3)n2)cc(OC)c1` [Compound 409, N4-[3-Chloro-4-(hydroxycarbonyl-1,1-dimethylmethyleneoxy)phenyl]-N2-(3,5-dimethoxyphenyl)-5-fluoro-2,4-pyrimidinediamine], the IC50 in experiment [1] (setting [5]) is less than 10 µM; in experiment [1] (setting [6]), less than 10 µM; in experiment [2], more than 10 µM.
In the case of `CCOC(=O)C(C)(C)Oc1ccc(Nc2nc(Nc3ccc(OC)c(Cl)c3)ncc2F)cc1Cl` [Compound 410, N4-[3-Chloro-4-(ethoxycarbonyl-1,1-dimethylmethyleneoxy)phenyl]-N2-(3-chloro-4-methoxyphenyl)-5-fluoro-2,4-pyrimidinediamine], the IC50 in experiment [1] (setting [5]), in experiment [1] (setting [6]) and in experiment [2] was less than 10 µM each time.
Turning to `CN(c1ccc2c(c1)OCCO2)c1nc(Nc2cccc(-c3cnco3)c2)ncc1F` [Compound 411], the IC50 is less than 10 µM in experiment [1] (setting [3]); less than 10 µM in experiment [1] (setting [4]); more than 10 µM in experiment [2] (Homo sapiens, Mast cell).
As for `CN(c1ccc2c(c1)OCCO2)c1nc(Nc2cccc(-c3ncco3)c2)ncc1F` [Compound 412], the IC50 in experiment [1] (setting [3]) was less than 10 µM; in experiment [2] (Homo sapiens, Mast cell) it was less than 10 µM.
Turning to `COc1ccc(Nc2nc(Nc3cc(C)cc(C)c3)ncc2F)cc1OC` [Compound 413], the IC50 in experiment [1] (setting [3]) is less than 10 µM; in experiment [1] (setting [4]) it was less than 10 µM; in experiment [2] (Homo sapiens, Mast cell), more than 10 µM.
Take `COc1cc(Nc2ncc(F)c(Nc3ccc(OC)c(OC)c3)n2)cc(OC)c1` [Compound 414, N2-(3,5-Dimethoxyphenyl)-N4-(3,4-dimethoxyphenyl)-5-fluoro-2,4-pyrimidinediamine]: the IC50 in experiment [1] (setting [3]) is less than 10 µM; in experiment [1] (setting [4]), less than 10 µM; in experiment [2] (Homo sapiens, Mast cell), more than 10 µM.
As for `CCOC(=O)c1cc2cccc(Nc3ncc(F)c(Nc4ccc(OC)c(OC)c4)n3)c2[nH]1` [Compound 415, N4-(3,4-Dimethoxyphenyl)-N2-[2-(ethoxycarbonyl)indol-7-yl]-5-fluoro-2,4-pyrimidinediamine], the IC50 in experiment [1] (setting [3]) is less than 10 µM; in experiment [1] (setting [4]) it was less than 10 µM; in experiment [2] (Homo sapiens, Mast cell), more than 10 µM.
For the molecule `CN(c1ccc2c(c1)OCCO2)c1nc(Nc2ccc(-c3ncco3)cc2)ncc1F` [Compound 416], the IC50 was less than 10 µM in experiment [1] (setting [3]) and more than 10 µM in experiment [2] (Homo sapiens, Mast cell).
Regarding `COC(=O)CN(c1ccc2c(c1)OCCO2)c1nc(Cl)ncc1F` [Compound 418], the IC50 in experiment [1] (setting [3]) is more than 10 µM; in experiment [2] (Homo sapiens, Mast cell) it was more than 10 µM.
For the molecule `COc1ccc(Nc2nc(Nc3cccc(-c4cnco4)c3)ncc2F)cc1OC` [Compound 419, N4-(3,4-Dimethoxyphenyl)-5-fluoro-N2-[3-(oxazol-5-yl)phenyl]-2,4-pyrimidinediamine], the IC50 in experiment [1] (setting [3]) is less than 10 µM; in experiment [1] (setting [4]), less than 10 µM; in experiment [2] (Homo sapiens, Mast cell) it was more than 10 µM.
`COC(=O)CN(c1ccc2c(c1)OCCO2)c1nc(Nc2ccc3cc[nH]c3c2)ncc1F` [Compound 420, N4-(3,4-Ethylenedioxyphenyl)-5-fluoro-N2-(indol-6-yl)-N4-(methoxycarbonylmethyl)-2,4-pyrimidinediamine]: the IC50 in experiment [1] (setting [3]) was less than 10 µM; in experiment [2] (Homo sapiens, Mast cell), more than 10 µM.
As to `CNC(=O)c1cc2cccc(Nc3ncc(F)c(Nc4ccc(OC)c(OC)c4)n3)c2[nH]1` [Compound 421, N4-(3,4-Dimethoxyphenyl)-5-fluoro-N2-[2-(N-methylaminocarbonyl)indol-7-yl]-2,4-pyrimidinediamine], the IC50 in experiment [1] (setting [3]) is less than 10 µM; in experiment [2] (Homo sapiens, Mast cell) it was more than 10 µM.
Consider `COc1ccc(Nc2nc(Nc3ccc(-c4cnco4)cc3)ncc2F)cc1OC` [Compound 422, N4-(3,4-Dimethoxyphenyl)-5-fluoro-N2-[4-(oxazol-5-yl)phenyl]-2,4-pyrimidinediamine], for which the IC50 in experiment [1] (setting [3]) was less than 10 µM; in experiment [1] (setting [4]), less than 10 µM; in experiment [2] (Homo sapiens, Mast cell), more than 10 µM.
On to `COc1ccc(Nc2nc(Nc3ccc(-c4ncco4)cc3)ncc2F)cc1OC` [Compound 424], for which the IC50 was less than 10 µM in experiment [1] (setting [3]) and more than 10 µM in experiment [2] (Homo sapiens, Mast cell).
As to `COc1ccc(Nc2ncc(F)c(Nc3ccc(OC)c(OC)c3)n2)cc1Cl` [Compound 425, N2-(3-Chloro-4-methoxyphenyl)-N4-(3,4-dimethoxyphenyl)-5-fluoro-2,4-pyrimidinediamine], the IC50 is less than 10 µM in experiment [1] (setting [3]); less than 10 µM in experiment [1] (setting [4]); more than 10 µM in experiment [2] (Homo sapiens, Mast cell).
Consider `CC(=O)N1CCN(c2cccc(Nc3ncc(F)c(Nc4ccc5c(c4)OCCO5)n3)c2)CC1` [Compound 426], for which the IC50 is less than 10 µM in experiment [1] (setting [3]); less than 10 µM in experiment [1] (setting [4]); more than 10 µM in experiment [2] (Homo sapiens, Mast cell).
On to `CC(=O)N1CCN(c2ccc(Nc3ncc(F)c(Nc4ccc5c(c4)OCCO5)n3)cc2)CC1` [Compound 427, N2-[4-(4-Acetylpiperazino)phenyl]-N4-(3,4-ethylenedioxyphenyl)-5-fluoro-2,4-pyrimidinediamine], for which the IC50 in experiment [1] (setting [3]) is less than 10 µM; in experiment [1] (setting [4]), less than 10 µM; in experiment [2] (Homo sapiens, Mast cell) it was more than 10 µM.
For `COc1cc(Nc2nc(Nc3cccc(N4CCN(C(C)=O)CC4)c3)ncc2F)cc(OC)c1` [Compound 428, N2-[3-(4-Acetylpiperazino)phenyl]-N4-(3,5-dimethoxyphenyl)-5-fluoro-2,4-pyrimidinediamine], the IC50 is less than 10 µM in experiment [1] (setting [3]) and more than 10 µM in experiment [2] (Homo sapiens, Mast cell).
As to `COc1ccc(Nc2nc(Nc3cccc(N4CCN(C(C)=O)CC4)c3)ncc2F)cc1OC` [Compound 429, N2-[3-(4-Acetylpiperazino)phenyl]-N4-(3,4-dimethoxyphenyl)-5-fluoro-2,4-pyrimidinediamine], the IC50 in experiment [1] (setting [3]) was less than 10 µM; in experiment [2] (Homo sapiens, Mast cell) it was more than 10 µM.
On to `COc1ccc(Nc2nc(Nc3ccc(N4CCN(C(C)=O)CC4)cc3)ncc2F)cc1OC` [Compound 430, N2-[4-(4-Acetylpiperazino)phenyl]-N4-(3,4-dimethoxyphenyl)-5-fluoro-2,4-pyrimidinediamine], for which the IC50 in experiment [1] (setting [3]) is less than 10 µM; in experiment [2] (Homo sapiens, Mast cell), more than 10 µM.
`CC(=O)N1CCN(c2cccc(Nc3ncc(F)c(Nc4ccc5c(c4)OC(F)(F)C(F)(F)O5)n3)c2)CC1` [Compound 431]: the IC50 in experiment [1] (setting [5]) was less than 10 µM; in experiment [1] (setting [6]), less than 10 µM; in experiment [2], more than 10 µM.
Consider `CC(=O)N1CCN(c2ccc(Nc3ncc(F)c(Nc4ccc5c(c4)OC(F)(F)C(F)(F)O5)n3)cc2)CC1` [Compound 432], for which the IC50 in experiment [1] (setting [5]) is less than 10 µM; in experiment [2], more than 10 µM.
For the molecule `COc1ccc(N(C)c2nc(Nc3cc(C)cc(C)c3)ncc2F)cc1OC` [Compound 433], the IC50 is less than 10 µM in experiment [1] (setting [3]) and more than 10 µM in experiment [2] (Homo sapiens, Mast cell).
The corresponding values for `COc1cc(Nc2ncc(F)c(N(C)c3ccc(OC)c(OC)c3)n2)cc(OC)c1` [Compound 434] are less than 10 µM and more than 10 µM.
On to `CCOC(=O)c1cc2cccc(Nc3ncc(F)c(N(C)c4ccc(OC)c(OC)c4)n3)c2[nH]1` [Compound 435, N4-(3,4-Dimethoxyphenyl)-N2-[2-(ethoxycarbonyl)indol-7-yl]-5-fluoro-N4-methyl-2,4-pyrimidinediamine], for which the IC50 was less than 10 µM in experiment [1] (setting [3]) and more than 10 µM in experiment [2] (Homo sapiens, Mast cell).
With `COc1ccc(N(C)c2nc(Nc3ccc4cc[nH]c4c3)ncc2F)cc1OC` [Compound 436, N4-(3,4-Dimethoxyphenyl)-5-fluoro-N2-(indol-6-yl)-N4-methyl-2,4-pyrimidinediamine], the IC50 in experiment [1] (setting [3]) is less than 10 µM; in experiment [2] (Homo sapiens, Mast cell), more than 10 µM.

These data come from patent publication US20220073536A1 (Rigel Pharmaceuticals, Inc., priority 2003, published 2022).
